In US20260085071A1, “NOVEL CRYSTALLINE FORM OF 1-(8-BROMOPYRIDO[2,3- E][1,2,4]TRIAZOLO[4,3-A]PYRAZIN-4-YL)-NMETHYLAZETIDIN- 3-AMINE” (JW PHARMACEUTICAL CORPORATION, priority 2022, published 2026):

How the values were obtained:
[1] = test system: inflammatory cells such as mast cells and eosinophils; conditions: background statement, U.S. Pat. No. 9,586,959; cited from earlier work
histamine 4 receptor = histamine 4 receptor (Homo sapiens, UniProt Q9H3N8); conditions: background statement, U.S. Pat. No. 9,586,959; cited from earlier work
[2] = Stability of polymorphic form during gentle drying; type: physicochemical; conditions: pure polymorphic forms from crystallization experiments
[3] = Stress testing at high temperature and high humidity; type: physicochemical; conditions: high temperature (60° C.) and high humidity (75%) for 4 weeks
[4] = Thermodynamic (thermal) stability of crystalline form; type: physicochemical; conditions: solid crystalline form
Method: TGA experiments were conducted using a TGA550 instrument from TA Instruments. About 1-10 mg of sample was loaded into a ceramic pan for the measurements. The sample temperature was ramped from 25 to 500° C. at 10° C./min. Nitrogen was used as the purge gas at a flow rate of 50 mL/min.
DSC: Heating rate of 10° C./min under a nitrogen atmosphere. About 1-2 mg of sample was loaded into an open aluminum pan for the measurements. Instrument Q20 from TA Instruments.

stability during gentle drying [2]	stability during stress testing [3]	thermodynamically stable up to [4]	Structure (SMILES)	effects against histamine induced infiltration of inflammatory cells [1]	histamine 4 receptor inhibitory effect (histamine 4 receptor)
			CNC1CN(c2nc3ncc(Br)cc3n3cnnc23)C1 [1-(8-bromopyrido[2,3-e][1,2,4]triazolo[4,3-a]pyrazin-4-yl)-N-methylazetidin-3-amine]	suppressive effects	strong
stable	stable	up to 273 °C	CNC1CN(c2nc3ncc(Br)cc3n3cnnc23)C1 [Form A, 1-(8-bromopyrido[2,3-e][1,2,4]triazolo[4,3-a]pyrazin-4-yl)-N-methylazetidine-3-amine]		
